Source: patent US20140336216A1, “PHYSIOLOGICAL LIGANDS FOR GPR139” (Janssen Pharmaceutica NV, priority 2013, published 2014)
Like-named read-outs stand apart in the source and are kept apart here.

Target: T1, GPR139 (Homo sapiens, UniProt Q6DWJ6)
T1 sequence (Q6DWJ6 1-353): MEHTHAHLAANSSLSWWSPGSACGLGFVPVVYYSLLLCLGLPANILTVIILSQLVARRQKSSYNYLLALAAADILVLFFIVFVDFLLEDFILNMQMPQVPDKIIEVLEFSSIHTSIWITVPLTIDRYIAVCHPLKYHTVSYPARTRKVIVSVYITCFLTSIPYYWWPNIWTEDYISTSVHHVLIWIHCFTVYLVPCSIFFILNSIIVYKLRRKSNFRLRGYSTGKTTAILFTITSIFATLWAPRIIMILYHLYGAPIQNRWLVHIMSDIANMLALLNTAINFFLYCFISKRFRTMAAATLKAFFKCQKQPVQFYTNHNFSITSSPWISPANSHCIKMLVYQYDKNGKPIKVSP
Assay: Calcium mobilization assay (FLIPR), GPR139 expressed in HEK293 cells
Assay type: cell-based
Design: expressed in transfected cells; host or cells: HEK293 (transient)
Procedure: FIG. 3A and FIG. 3B: Provides the results of experiments conducted to determine whether Trp and its derivatives (FIG. 3A) and Phe and its derivatives (FIG. 3B) stimulate Ca^2+ mobilization in HEK293 cells expressing GPR139.
The active compounds were also tested in a calcium mobilization assay (FLIPR® assay). For these experiments human GPR139 was transiently expressed in HEK293 cells and calcium mobilization was stimulated using L-Trp, L-Phe or their derivatives. […] The concentrations of L-Trp and L-Phe in many cell culture media (for instance DMEM is about 80 μM and 750 μM respectively) are close to the EC50 values of L-Trp and L-Phe for GPR139. […] This may explain why GPR139 appeared constitutively active when recombinantly expressed in mammalian cells.
About 300 additional phenylalanine analogues have been tested for GPR139 activation using a calcium mobilization (FLIPR®) assay. The results of these experiments indicate that many of these analogues can also activate GPR139. Table 4 lists certain phenylalanine analogues that have been determined to activate GPR139 by calcium mobilization at a concentration of 300 μM (calcium mobilization is expressed as percentage of that observed for L-phenylalanine).

[1] = HEK293, 300 μM, calcium mobilization as percentage of that observed for L-phenylalanine, read-out: % L-phenylalanine at 300 μM (average), calcium mobilization
[2] = HEK293, read-out: % L-phenylalanine at 300 μM (average), calcium mobilization
[3] = 300 μM, calcium mobilization as percentage of that observed for L-phenylalanine

Compound | Emax at 300 µM [1] | further results
N[C@H](Cc1ccc(I)cc1)C(=O)O [4-Iodo-D-phenylalanine] | 125% | –
N[C@@H](Cc1ccc(Br)cc1)C(=O)O [4-Bromo-L-phenylalanine] | – | Emax at 300 µM [2]: 153%
Cc1ccc(C[C@@H](N)C(=O)O)c(C)c1 [2,4-Dimethyl-D-phenylalanine] | 101% | –
N[C@@H](Cc1ccc(Br)s1)C(=O)O [2-(5-bromothienyl)-L-alanine] | – | % L-phenylalanine at 300 μM (average), calcium mobilization [3]: 151 % L-phenylalanine
COc1ccc(C[C@H](N)C(=O)O)cc1 [4-Methoxy-L-phenylalanine] | 128% | –
N[C@@H](Cc1ccc(Cl)cc1)C(=O)O [4-Chloro-L-phenylalanine] | 146% | –
N[C@H](CCc1ccccc1)C(=O)O [d-Homo-phenylalanine] | – | % L-phenylalanine at 300 μM (average), calcium mobilization [3]: 105 % L-phenylalanine
C[C@](N)(Cc1ccc(F)cc1)C(=O)O [α-methyl-4-Fluoro-L-phenylalanine] | 125% | –
N[C@H](Cc1cccc(Cl)c1)C(=O)O [3-Chloro-D-phenylalanine] | 147% | –
N[C@@H](Cc1ccc([N+](=O)[O-])cc1[N+](=O)[O-])C(=O)O [2,4-Dinitro-L-phenylalanine] | – | Emax at 300 µM [2]: 95%
Cc1ccc(C[C@@H](N)C(=O)O)cc1 [4-Methyl-D-phenylalanine] | 102% | –
S-Nitro-L-phenylalanine | – | % L-phenylalanine at 300 μM (average), calcium mobilization [3]: 150 % L-phenylalanine
N[C@@H](Cc1cccc([N+](=O)[O-])c1)C(=O)O [3-Nitro-L-phenylalanine] | 131% | –
N[C@H](Cc1ccc(Br)cc1)C(=O)O [4-Bromo-D-phenylalanine] | – | Emax at 300 µM [2]: 139%
N[C@@H](Cc1ccc(I)cc1)C(=O)O [4-Iodo-L-phenylalanine] | 116% | –
N#Cc1cccc(C[C@H](N)C(=O)O)c1 [3-Cyano-L-phenylalanine] | 115% | –
S-(5-bromothienyl)-D-alanine | – | % L-phenylalanine at 300 μM (average), calcium mobilization [3]: 154 % L-phenylalanine
N[C@@H](Cc1ccccc1F)C(=O)O [2-Fluoro-L-phenylalanine] | 119% | –
CC(C)(C)OC(=O)N1Cc2ccccc2C[C@@H]1C(=O)O [(3R)-2-tert-butoxycarbony 1-3,4-dihydro-1H-isoquinoline-3-carboxylic acid] | – | % L-phenylalanine at 300 μM (average), calcium mobilization [3]: 155 % L-phenylalanine
Cc1ccc(C[C@H](N)C(=O)O)cc1 [4-Methyl-L-phenylalanine] | 149% | –
Cc1ccc(C[C@H](N)C(=O)O)c(C)c1 [2,4-Dimethyl-L-phenylalanine] | 113% | –
N[C@@H](Cc1ccc(Cl)c(Cl)c1)C(=O)O [3,4-Dichloro-L-phenylalanine] | 149% | –
Cc1cccc(C[C@@H](N)C(=O)O)c1 [3-Methyl-D-phenylalanine] | 150% | –
O=C(O)[C@@H]1Cc2c([nH]c3ccccc23)CN1 [L-1,2,3,4-tetrahydronorharman-3-carboxylic acid] | – | % L-phenylalanine at 300 μM (average), calcium mobilization [3]: 151 % L-phenylalanine
N[C@@H](Cc1ccc(C(F)(F)F)cc1)C(=O)O [4-Trifluoromethyl-L-phenylalanine] | 150% | –
N[C@@H](Cc1cccc(Cl)c1)C(=O)O [3-Chloro-L-phenylalanine] | 145% | –

Now from value to compound, other results behind:

Emax at 300 µM [1] | Compound | further results
172% | N[C@H](Cc1cccc(Br)c1)C(=O)O [3-Bromo-D-phenylalanine] | –
117% | N[C@H](C(=O)O)C(c1ccccc1)c1ccccc1 [3,3-Diphenyl-L-alanine] | –
121% | N[C@H](Cc1ccc(F)c(F)c1)C(=O)O [3,4-Difluoro-D-phenylalanine] | –
168% | N[C@@H](Cc1ccccc1Br)C(=O)O [2-Bromo-L-phenylalanine] | –
110% | N[C@H](Cc1ccc(Cl)cc1)C(=O)O [4-Chloro-D-phenylalanine] | –
167% | N[C@@H](Cc1cccc(Br)c1)C(=O)O [3-Bromo-L-phenylalanine] | –
110% | N[C@@H](Cc1ccccc1C(F)(F)F)C(=O)O [2-Trifluoromethyl-L-phenylalanine] | –
135% | N[C@H](Cc1ccc(Cl)cc1Cl)C(=O)O [2,4-Dichloro-D-phenylalanine] | –
115% | CC(C)(C)c1ccc(C[C@H](N)C(=O)O)cc1 [4-tert-Butyl-L-phenylalanine] | –
109% | Cc1ccccc1C[C@@H](N)C(=O)O [2-Methyl-D-phenylalanine] | –
111% | N[C@H](Cc1ccc([N+](=O)[O-])cc1)C(=O)O [4-Nitro-D-phenylalanine] | –
133% | N[C@@H](Cc1cccc(C(F)(F)F)c1)C(=O)O [3-Trifluoromethyl-L-phenylalanine] | –
129% | N[C@H](CCCc1ccccc1)C(=O)O [D-2-Amino-5-phenyl-pentanoic acid] | –
93% | N#Cc1cccc(C[C@@H](N)C(=O)O)c1 [3-Cyano-D-phenylalanine] | –
145% | N[C@H](Cc1c(F)c(F)c(F)c(F)c1F)C(=O)O [2,3,4,5,6-P entafluoro-D-phenylalanine] | –
122% | N[C@@H](Cc1ccc(Cl)cc1Cl)C(=O)O [2,4-Dichloro-L-phenylalanine] | –
134% | Cc1ccccc1C[C@H](N)C(=O)O [2-Methyl-L-phenylalanine] | –
94% | N[C@H](Cc1cccc(F)c1)C(=O)O [3-Fluoro-D-phenylalanine] | –
102% | N[C@H](Cc1cc(F)cc(F)c1)C(=O)O [3,5-Difluoro-D-phenylalanine] | –
91% | N[C@H](Cc1ccc(F)cc1)C(=O)O [4-Fluoro-D-phenylalanine] | –
164% | N[C@H](Cc1cccc([N+](=O)[O-])c1)C(=O)O [3-Nitro-D-Phenylalanin] | –
147% | Cc1cccc(C[C@H](N)C(=O)O)c1 [3-Methyl-L-phenylalanine] | –
149% | N[C@H](Cc1ccc(Cl)c(Cl)c1)C(=O)O [3,4-Dichloro-D-phenylalanine] | –
132% | N[C@@H](Cc1ccc(F)cc1)C(=O)O [4-Fluoro-L-phenylalanine] | –
135% | N[C@H](Cc1ccccc1Br)C(=O)O [2-Bromo-D-phenylalanine] | –
114% | N[C@@H](Cc1cccc(F)c1)C(=O)O [3-Fluoro-L-phenylalanine] | –
